Measurements reported in PubChem BioAssay (NCI).
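Cells were grown in 96-well plates and exposed to each compound for 48 hours at five concentrations; endpoints were interpolated linearly between bracketing concentrations, or set to the highest concentration if not reached. At the TGI there is no net growth.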

These compounds were tested on OVCAR-5 ovarian (assay: NCI tumour cell line growth inhibition, 48 h).

Compound | TGI [µM]
COc1ccc(C(C)NNC(=O)c2ccncc2)c(OC)c1 (stereo not drawn) | > 100
O=[N+]([O-])c1cc2oc(COc3ccccc3)nc2cc1Cl | > 100
Cc1ccc(S(=O)(=O)N/N=C/C(=C/c2ccc(Cl)cc2)CC(/C=N/NS(=O)(=O)c2ccc(C)cc2)=C\c2ccc(Cl)cc2)cc1 | 35.5
CC(C)(C)c1cc(C(P(=O)(c2ccccc2)c2ccccc2)P(=O)(c2ccccc2)c2ccccc2)cc(C(C)(C)C)c1O | > 6.72
CCn1c(-c2cc(OC)cc(OC)c2)nc2c1C(=O)c1ccccc1C2=O | > 100
CCN(CC)c1c(N(CC)CC)c(=O)c1=O | 37.2
COc1cc(-c2cc(=O)c3c(OC)c(OC)c(OC)c(OC)c3o2)c(OC)c(OC)c1OC | > 100
O=[N+]([O-])c1ccc(Cl)c(C=NC23CC4CC(CC(C4)C2)C3)c1 | > 10
CCSc1n/c(=C\c2ccco2)c2nnnn12 | > 100
COc1cc(/C=C2\CCC(C)C3C2=NN(C(C)=O)C3c2cc(OC)c(OC)c(OC)c2)cc(OC)c1OC (stereo not drawn) | > 36.3
CCCCCCCCCCCCCCCCCCNc1ccn(C2OC(COP(=O)(O)OCC3OC(n4cc(C)c(=O)[nH]c4=O)CC3O)C(O)C2O)c(=O)n1 (stereo not drawn) | 28.2
CC[N+](CC)(CCNCC(N)=O)CC(N)=O | > 10
COc1cc(Nc2cnc3cc(F)c(F)cc3n2)cc(OC)c1OC | > 100

What follows are compounds tested on PC-3 prostate (assay: NCI tumour cell line growth inhibition, 48 h).

Compound | TGI [µM]
S=C(NCc1ccccc1)c1nc[nH]c1C(=S)NCc1ccccc1 | 20.4
O=Cc1ccc2c(c1)CC1(C2)Cc2ccc3c(c2C1)CCC3 (stereo not drawn) | 18.2
CC(C)(Cc1ccccc1)NC1=NCCO1 | > 100
C=C(C)C(CC=C(C)C)CC12CC(CC=C(C)C)C(C)(C)C(CC=C(C)C)(C(=O)C(Cc3ccc(O)c(O)c3)=C1O)C2=O (stereo not drawn) | > 100
CCc1nc(N)nc(N)c1-c1ccc2nn(-c3ccccc3)[n+]([O-])c2c1 | 23.4
Nc1nc(N)c2[nH]c(CNc3ccc(C(=O)O)cc3)nc2n1 | > 100
CCC1(CC)SCc2nc3ccccc3n21 | 81.1
C[C@]12CC[C@H](O)CC1=CC[C@@H]1[C@@H]2CC[C@]2(C)C(=O)[C@@H](N3CCOCC3)C[C@@H]12 | > 100
CC(=O)n1nc(-c2ccccc2)n(/N=C/c2ccc([N+](=O)[O-])cc2)c1=O | > 100
COc1ccc(C(=O)Sc2c(-c3ccccc3)c(=O)n(-c3ccccc3)c(=S)n2-c2ccccc2)cc1 | > 100
COc1ccc(CC2c3cc(Oc4cc(CC5c6cc(OC)c(OC)cc6CCN5C)ccc4O)c(OC)cc3CCN2C)cc1 (stereo not drawn) | 11.4
COc1ccc(C(C)NNC(=O)c2ccncc2)c(OC)c1 (stereo not drawn) | > 100
O=[N+]([O-])c1cc2oc(COc3ccccc3)nc2cc1Cl | > 100
Cc1ccc(S(=O)(=O)N/N=C/C(=C/c2ccc(Cl)cc2)CC(/C=N/NS(=O)(=O)c2ccc(C)cc2)=C\c2ccc(Cl)cc2)cc1 | 24
CC(C)(C)c1cc(C(P(=O)(c2ccccc2)c2ccccc2)P(=O)(c2ccccc2)c2ccccc2)cc(C(C)(C)C)c1O | 7.67
CCn1c(-c2cc(OC)cc(OC)c2)nc2c1C(=O)c1ccccc1C2=O | > 100
CCN(CC)c1c(N(CC)CC)c(=O)c1=O | 46.4
COc1cc(-c2cc(=O)c3c(OC)c(OC)c(OC)c(OC)c3o2)c(OC)c(OC)c1OC | 50.1
O=[N+]([O-])c1ccc(Cl)c(C=NC23CC4CC(CC(C4)C2)C3)c1 | > 10
CCSc1n/c(=C\c2ccco2)c2nnnn12 | > 100
COc1cc(/C=C2\CCC(C)C3C2=NN(C(C)=O)C3c2cc(OC)c(OC)c(OC)c2)cc(OC)c1OC (stereo not drawn) | > 100
CCCCCCCCCCCCCCCCCCNc1ccn(C2OC(COP(=O)(O)OCC3OC(n4cc(C)c(=O)[nH]c4=O)CC3O)C(O)C2O)c(=O)n1 (stereo not drawn) | 10.2
CC[N+](CC)(CCNCC(N)=O)CC(N)=O | > 10
COc1cc(Nc2cnc3cc(F)c(F)cc3n2)cc(OC)c1OC | > 100

The compounds below were run on RXF 393 renal (assay: NCI tumour cell line growth inhibition, 48 h).

Compound | TGI [µM]
S=C(NCc1ccccc1)c1nc[nH]c1C(=S)NCc1ccccc1 | 24.9
O=Cc1ccc2c(c1)CC1(C2)Cc2ccc3c(c2C1)CCC3 (stereo not drawn) | 28.5
CC(C)(Cc1ccccc1)NC1=NCCO1 | > 100
C=C(C)C(CC=C(C)C)CC12CC(CC=C(C)C)C(C)(C)C(CC=C(C)C)(C(=O)C(Cc3ccc(O)c(O)c3)=C1O)C2=O (stereo not drawn) | > 100
CCc1nc(N)nc(N)c1-c1ccc2nn(-c3ccccc3)[n+]([O-])c2c1 | 25
Nc1nc(N)c2[nH]c(CNc3ccc(C(=O)O)cc3)nc2n1 | > 100
CCC1(CC)SCc2nc3ccccc3n21 | 94.5
C[C@]12CC[C@H](O)CC1=CC[C@@H]1[C@@H]2CC[C@]2(C)C(=O)[C@@H](N3CCOCC3)C[C@@H]12 | > 100
CC(=O)n1nc(-c2ccccc2)n(/N=C/c2ccc([N+](=O)[O-])cc2)c1=O | > 100
COc1ccc(C(=O)Sc2c(-c3ccccc3)c(=O)n(-c3ccccc3)c(=S)n2-c2ccccc2)cc1 | 98.4
COc1ccc(CC2c3cc(Oc4cc(CC5c6cc(OC)c(OC)cc6CCN5C)ccc4O)c(OC)cc3CCN2C)cc1 (stereo not drawn) | 12
COc1ccc(C(C)NNC(=O)c2ccncc2)c(OC)c1 (stereo not drawn) | > 100
O=[N+]([O-])c1cc2oc(COc3ccccc3)nc2cc1Cl | 69.5
Cc1ccc(S(=O)(=O)N/N=C/C(=C/c2ccc(Cl)cc2)CC(/C=N/NS(=O)(=O)c2ccc(C)cc2)=C\c2ccc(Cl)cc2)cc1 | 7.38
CC(C)(C)c1cc(C(P(=O)(c2ccccc2)c2ccccc2)P(=O)(c2ccccc2)c2ccccc2)cc(C(C)(C)C)c1O | 7.09
CCn1c(-c2cc(OC)cc(OC)c2)nc2c1C(=O)c1ccccc1C2=O | 69.2
CCN(CC)c1c(N(CC)CC)c(=O)c1=O | 25.2
COc1cc(-c2cc(=O)c3c(OC)c(OC)c(OC)c(OC)c3o2)c(OC)c(OC)c1OC | > 100
O=[N+]([O-])c1ccc(Cl)c(C=NC23CC4CC(CC(C4)C2)C3)c1 | > 10
CCSc1n/c(=C\c2ccco2)c2nnnn12 | > 100
COc1cc(/C=C2\CCC(C)C3C2=NN(C(C)=O)C3c2cc(OC)c(OC)c(OC)c2)cc(OC)c1OC (stereo not drawn) | > 100
CCCCCCCCCCCCCCCCCCNc1ccn(C2OC(COP(=O)(O)OCC3OC(n4cc(C)c(=O)[nH]c4=O)CC3O)C(O)C2O)c(=O)n1 (stereo not drawn) | 25.9
CC[N+](CC)(CCNCC(N)=O)CC(N)=O | > 10
COc1cc(Nc2cnc3cc(F)c(F)cc3n2)cc(OC)c1OC | > 100

Each compound was assayed on SF-539 CNS (assay: NCI tumour cell line growth inhibition, 48 h).

Compound | TGI [µM]
S=C(NCc1ccccc1)c1nc[nH]c1C(=S)NCc1ccccc1 | 23.2
O=Cc1ccc2c(c1)CC1(C2)Cc2ccc3c(c2C1)CCC3 (stereo not drawn) | 26.1
CC(C)(Cc1ccccc1)NC1=NCCO1 | > 100
C=C(C)C(CC=C(C)C)CC12CC(CC=C(C)C)C(C)(C)C(CC=C(C)C)(C(=O)C(Cc3ccc(O)c(O)c3)=C1O)C2=O (stereo not drawn) | > 100
CCc1nc(N)nc(N)c1-c1ccc2nn(-c3ccccc3)[n+]([O-])c2c1 | 18.2
Nc1nc(N)c2[nH]c(CNc3ccc(C(=O)O)cc3)nc2n1 | > 100
CCC1(CC)SCc2nc3ccccc3n21 | > 100
C[C@]12CC[C@H](O)CC1=CC[C@@H]1[C@@H]2CC[C@]2(C)C(=O)[C@@H](N3CCOCC3)C[C@@H]12 | > 100
CC(=O)n1nc(-c2ccccc2)n(/N=C/c2ccc([N+](=O)[O-])cc2)c1=O | > 100
COc1ccc(C(=O)Sc2c(-c3ccccc3)c(=O)n(-c3ccccc3)c(=S)n2-c2ccccc2)cc1 | 35.6
COc1ccc(CC2c3cc(Oc4cc(CC5c6cc(OC)c(OC)cc6CCN5C)ccc4O)c(OC)cc3CCN2C)cc1 (stereo not drawn) | 16.8
COc1ccc(C(C)NNC(=O)c2ccncc2)c(OC)c1 (stereo not drawn) | > 100
O=[N+]([O-])c1cc2oc(COc3ccccc3)nc2cc1Cl | 45.8
Cc1ccc(S(=O)(=O)N/N=C/C(=C/c2ccc(Cl)cc2)CC(/C=N/NS(=O)(=O)c2ccc(C)cc2)=C\c2ccc(Cl)cc2)cc1 | 34.2
CC(C)(C)c1cc(C(P(=O)(c2ccccc2)c2ccccc2)P(=O)(c2ccccc2)c2ccccc2)cc(C(C)(C)C)c1O | 3.88
CCn1c(-c2cc(OC)cc(OC)c2)nc2c1C(=O)c1ccccc1C2=O | > 100
CCN(CC)c1c(N(CC)CC)c(=O)c1=O | 19
COc1cc(-c2cc(=O)c3c(OC)c(OC)c(OC)c(OC)c3o2)c(OC)c(OC)c1OC | > 100
O=[N+]([O-])c1ccc(Cl)c(C=NC23CC4CC(CC(C4)C2)C3)c1 | 9.9
CCSc1n/c(=C\c2ccco2)c2nnnn12 | > 100
COc1cc(/C=C2\CCC(C)C3C2=NN(C(C)=O)C3c2cc(OC)c(OC)c(OC)c2)cc(OC)c1OC (stereo not drawn) | > 100
CCCCCCCCCCCCCCCCCCNc1ccn(C2OC(COP(=O)(O)OCC3OC(n4cc(C)c(=O)[nH]c4=O)CC3O)C(O)C2O)c(=O)n1 (stereo not drawn) | 31.5
CC[N+](CC)(CCNCC(N)=O)CC(N)=O | > 10
COc1cc(Nc2cnc3cc(F)c(F)cc3n2)cc(OC)c1OC | > 100

The compounds below were run on SK-MEL-28 melanoma (assay: NCI tumour cell line growth inhibition, 48 h).

Compound | TGI [µM]
S=C(NCc1ccccc1)c1nc[nH]c1C(=S)NCc1ccccc1 | 26.9
O=Cc1ccc2c(c1)CC1(C2)Cc2ccc3c(c2C1)CCC3 (stereo not drawn) | 29.5
CC(C)(Cc1ccccc1)NC1=NCCO1 | > 100
C=C(C)C(CC=C(C)C)CC12CC(CC=C(C)C)C(C)(C)C(CC=C(C)C)(C(=O)C(Cc3ccc(O)c(O)c3)=C1O)C2=O (stereo not drawn) | > 100
CCc1nc(N)nc(N)c1-c1ccc2nn(-c3ccccc3)[n+]([O-])c2c1 | 25.1
Nc1nc(N)c2[nH]c(CNc3ccc(C(=O)O)cc3)nc2n1 | > 100
CCC1(CC)SCc2nc3ccccc3n21 | > 100
C[C@]12CC[C@H](O)CC1=CC[C@@H]1[C@@H]2CC[C@]2(C)C(=O)[C@@H](N3CCOCC3)C[C@@H]12 | > 100
CC(=O)n1nc(-c2ccccc2)n(/N=C/c2ccc([N+](=O)[O-])cc2)c1=O | > 100
COc1ccc(C(=O)Sc2c(-c3ccccc3)c(=O)n(-c3ccccc3)c(=S)n2-c2ccccc2)cc1 | > 100
COc1ccc(CC2c3cc(Oc4cc(CC5c6cc(OC)c(OC)cc6CCN5C)ccc4O)c(OC)cc3CCN2C)cc1 (stereo not drawn) | 15.1
COc1ccc(C(C)NNC(=O)c2ccncc2)c(OC)c1 (stereo not drawn) | > 100
O=[N+]([O-])c1cc2oc(COc3ccccc3)nc2cc1Cl | > 100
Cc1ccc(S(=O)(=O)N/N=C/C(=C/c2ccc(Cl)cc2)CC(/C=N/NS(=O)(=O)c2ccc(C)cc2)=C\c2ccc(Cl)cc2)cc1 | 20.2
CC(C)(C)c1cc(C(P(=O)(c2ccccc2)c2ccccc2)P(=O)(c2ccccc2)c2ccccc2)cc(C(C)(C)C)c1O | 4.71
CCn1c(-c2cc(OC)cc(OC)c2)nc2c1C(=O)c1ccccc1C2=O | > 100
CCN(CC)c1c(N(CC)CC)c(=O)c1=O | 41.9
COc1cc(-c2cc(=O)c3c(OC)c(OC)c(OC)c(OC)c3o2)c(OC)c(OC)c1OC | > 100
O=[N+]([O-])c1ccc(Cl)c(C=NC23CC4CC(CC(C4)C2)C3)c1 | > 10
CCSc1n/c(=C\c2ccco2)c2nnnn12 | > 100
COc1cc(/C=C2\CCC(C)C3C2=NN(C(C)=O)C3c2cc(OC)c(OC)c(OC)c2)cc(OC)c1OC (stereo not drawn) | > 51.2
CCCCCCCCCCCCCCCCCCNc1ccn(C2OC(COP(=O)(O)OCC3OC(n4cc(C)c(=O)[nH]c4=O)CC3O)C(O)C2O)c(=O)n1 (stereo not drawn) | 31.3
CC[N+](CC)(CCNCC(N)=O)CC(N)=O | > 10
COc1cc(Nc2cnc3cc(F)c(F)cc3n2)cc(OC)c1OC | > 100

Each compound was assayed on SN12C renal (assay: NCI tumour cell line growth inhibition, 48 h).

Compound | TGI [µM]
S=C(NCc1ccccc1)c1nc[nH]c1C(=S)NCc1ccccc1 | 25
O=Cc1ccc2c(c1)CC1(C2)Cc2ccc3c(c2C1)CCC3 (stereo not drawn) | 23.7
CCc1nc(N)nc(N)c1-c1ccc2nn(-c3ccccc3)[n+]([O-])c2c1 | 24.4
Nc1nc(N)c2[nH]c(CNc3ccc(C(=O)O)cc3)nc2n1 | > 100
